According to patent US4810800A, “Novel imidazole dopamine beta hydroxylase inhibitors” (Merrell Dow Pharmaceuticals Inc., priority 1988, dated 1989):

Key:
[1] = system: spontaneously hypertensive rats; test: antihypertensive effect: blood pressure monitored continuously in spontaneously hypertensive rats after ip dosing; format: in vivo; details: 50 mg/kg, 6 hours post dose in SHR, Mean Difference ± Standard Deviation
Description: The ability of the compounds of this invention to lower blood pressure can be determined in vivo using spontaneously hypertensive rats (SHR'S) according to standard and well known procedures. The test compound is administered intraperitoneally (ip) to rats and the blood pressure monitored continuously. Snce DBH is a major enzyme in the synthetic pathway of the catecholamines, it would be expected that the presence of an inhibitor would act to decrease the amount of catecholamines produced, and thereby have an antihypertensive effect. The results of the testing for this antihypertensive effect are shown in Table I (MBP is mean blood pressure).
In Vivo at 50 mg/kg, IP, 6 Hours Post Dose in SHR's*

[2] = target: T1, dopamine beta-hydroxylase (Bos taurus, UniProt P15101); test: in vitro DBH inhibition (conversion of tyramine to octopamine; oxygen uptake by polarographic electrode); format: biochemical; details: pH of 5, 37° C. preferably
T1 sequence (P15101 1-610): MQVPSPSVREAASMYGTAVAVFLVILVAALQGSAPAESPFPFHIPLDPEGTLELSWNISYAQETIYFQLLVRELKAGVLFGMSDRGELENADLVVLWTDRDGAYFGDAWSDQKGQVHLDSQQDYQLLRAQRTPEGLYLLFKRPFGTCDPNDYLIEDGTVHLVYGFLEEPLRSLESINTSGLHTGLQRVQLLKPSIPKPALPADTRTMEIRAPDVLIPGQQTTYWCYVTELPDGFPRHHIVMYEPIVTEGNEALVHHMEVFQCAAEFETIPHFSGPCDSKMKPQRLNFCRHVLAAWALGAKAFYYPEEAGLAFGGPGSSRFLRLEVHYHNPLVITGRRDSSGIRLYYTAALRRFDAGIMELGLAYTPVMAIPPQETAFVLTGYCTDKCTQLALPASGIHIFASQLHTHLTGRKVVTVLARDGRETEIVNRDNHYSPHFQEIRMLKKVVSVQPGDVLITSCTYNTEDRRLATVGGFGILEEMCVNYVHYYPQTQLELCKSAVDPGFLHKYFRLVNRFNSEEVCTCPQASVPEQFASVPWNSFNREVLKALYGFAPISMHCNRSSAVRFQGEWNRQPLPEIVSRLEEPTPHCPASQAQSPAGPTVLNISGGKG
Description: The DBH inhibitory properties of the compounds of this invention can readily be determined in vitro by standard and well known procedures for assaying conversion of tyramine to octopamine in the presence of dopamine beta-hydroxylase. Enzymatic oxygenation by DBH is determined in aqueous solution in the presence of molecular oxygen, an electron donor such as ascorbate, and the necessary cofactors for the enzyme at pH of 5 and a temperature of 20°-40° C., preferably 37° C. The test compound is added at the desired concentration, and the system is incubated. Activity is measured by measuring the oxygen uptake using a polarographic electrode and an oxygen monitor by the method of S. May, et al., J. Biol. Chem. 256, 2258 (1981). Inhibition is given in molar concentration of compound at which DBH activity was halved (IC50) when the test compounds were tested according to the above described procedure. The IC50 (expressed in micromolar units) data of some of the compounds of this invention are expressed in Table I.

Row | Compound | Max Change MBP (mean blood pressure) [1] | IC50 [2]
1 | NCc1nccn1Cc1cccs1 [Compound 1, 2-Aminomethyl-1-(2-thienylmethyl)-1H-imidazole] | -41 ± 14 mmHg | 12.8 µM
2 | NC(=S)c1nccn1Cc1cccs1 [Compound 2, 1-(2-Thienylmethyl)-2-thiocarbamyl-1H-imidazole] | -25 ± 12 mmHg | 4.7 µM
